Test results: patent US20170051149A1, “AZOARYLS AS REVERSIBLY MODULATABLE TUBULIN INHIBITORS” (ECOLE NORMALE SUPERIEURE DE LYON, priority 2014, published 2017)

Assays:
[1] = thermal reversion halflife of spontaneous cis->trans isomerisation; assay type: physicochemical
Source text: Finally, trends in τ were ascertained by establishing the PSS at λstrong, then turning off the light source at time t0, and measuring A(λstrong, t) over time. Data were acquired for half an hour, or else the first three halflives (whichever was the shorter period), then fitted to the equation:
A(λstrong,t)=A(λstrong,dark)−[A(λstrong,dark)−A(λstrong,t0)]×e^−kt
This fit was used to return an in vitro halflife τ* for the cis->trans spontaneous thermal reversion isomerisation process, defined as τ=ln 2/k. It should be noted however, that azoaryl compounds' thermal reversion rates are known to depend strongly upon their microenvironment, such as pH and solvent/solvation effects^[7,38]. This was shown for compound (I.1), where a change of only 1.4 pH units gave a 25% change in τ*; note that different compounds are expected to respond very differently to changes in pH so no unifying trends are expected. Therefore the τ* acquired in vitro were considered appropriate only for qualitative intercomparison between samples (trend of τ* vs structure), rather than quantitative prediction of the τ values which might be experienced in cellulo or in vivo. Indeed, these in vitro τ* values appeared at least three times longer than what would have been expected based on in cellulo experiments where the pause time between activating pulses was varied.
Thermal reversion times were measured as described above. Those for selected compounds are presented below (Table 2).

[2] = photoisomerisation: photostationary state, calculated φ(λ) and E(λ), reversible cycling; assay type: physicochemical
Experimental: In a simple analysis of the PSS(λ) and E(λ), it was approximated that ΦEZ and ΦZE (the quantum efficiencies of the photoisomerisations trans->cis and cis->trans, respectively) are equal and independent of wavelength, and also that the kinetics of spontaneous reversion could be ignored (eg. high-intensity light source). A function φ(λ) was then calculated as per: […]
If ΦEZ and ΦZE are equal and independent of wavelength, φ(λ) gives the true PSS(λ). The wavelength independence of ΦEZ and ΦZE may be an acceptable approximation in regions of relatively strong absorption within the visible spectrum. Their equality may also be an acceptable assumption: since if ΦEZ and ΦZE are unequal but only depend weakly on wavelength in regions of relatively strong absorption, then φ(λ) is a transform of the true PSS(λ); this transform preserves the features of PSS(λ) which were most desired for evaluation in this study as long as ΦEZ and ΦZE are not too different (eg less than a factor of ten difference). Indeed, the calculated φ(λ) were later confirmed by in cellulo experiments to give reliable indications of favourable wavelengths for bulk trans->cis and bulk cis->trans photoisomerisation, which is the benchmark for a suitable analysis of the PSS(λ). The advantages of calculating φ(λ) rather than exhaustively measuring the PSS(λ) experimentally are that (a) the throughput is much faster, (b) the true PSS(λ) may be difficult to achieve at weakly-absorbing wavelengths or with fast-relaxing compounds, (c) the true PSS(λ) may be difficult to measure accurately at wavelengths where one isomer strongly dominates the sample even if both are relatively strongly absorbing, and (d) the variation of PSS(λ) with changes in the local biological microenvironment (polarity, pH etc) may anyway be larger than the error incurred by the assumption φ(λ)═PSS(λ).
Also following the assumption that ΦEZ and ΦZE are equal and independent of wavelength, a photoisomerisation efficiency E(λ) was calculated as per:
E(λ)=[εE(λ)+εZ(λ)]/[εE(390)+εZ(390)]
Larger values of E(λ) therefore denote higher efficiency photoisomerisation (less photon flux is required to approach the PSS(λ)). E(λ) was parametrised to the absorption coefficients at 390 nm, since typically that wavelength gave satisfactorily strong absorption and efficient photoisomerisation. It should be noted that E(λ) are not intercomparable between different compounds. This reflects the realistic scenario that the ΦEZ (or the ΦZE) of two arbitrarily chosen compounds may differ by a significant amount, even if the approximation that ΦEZ and ΦZE are equal and independent of wavelength applies independently to each compound.
A(λstrong) was measured over time in the UV-Vis cuvette in non-degassed PBS left open to the atmosphere, […], at 37° C., while the monochromator was used to apply λirrad alternating between two values λ1 and λ2, chosen to induce net trans->cis and net cis->trans isomerisation respectively. Typical results are presented for compound I.1 (FIG. 3). The absorbance of I.1 (18 μM) was measured at λstrong=378 nm, while the irradiating wavelength was held alternately at λ1=388 nm (50 s; bulk trans->cis) then λ2=508 nm (180 s, bulk cis->trans). Higher absorbance corresponds to a greater amount of trans isomer: an absorbance of 0.27 here corresponds to an approximately 5:1 ratio of trans:cis isomer in the sample, and an absorbance of 0.12 here corresponds to an approximately 1:2 ratio of trans:cis isomer in the sample. […] Typically, compounds of the invention could be bulk-photoisomerised hundreds of times over a timescale of hours (50 representative cycles are shown in FIG. 3 for I.1), such that the majority species in a sample was photocontrollably alternated between the trans-isomer and the cis-isomer. […]

τ, reversion time ([1]; PBS pH = 6, 20% MeCN) [min]	E(388)/E(508) [2]	E(λ) ([2]; 390 nm)	% cis after photoisomerisation from all-trans ([2]; 390 nm light)	E(λ) ([2]; 410 nm)	% cis after photoisomerisation from all-trans ([2]; 450 nm light)	E(λ) ([2]; 475 nm)	E(λ) ([2]; 490 nm)	E(λ) ([2]; 505 nm)	E(λ) ([2]; 525 nm)	φ(490) ([2]; calculated from εE and εZ)	φ(505) ([2]; calculated from εE and εZ)	% cis after subsequent irradiation ([2]; subsequent 505 nm light)	SMILES	τ, reversion time ([1]; PBS pH = 7.4, 20% MeCN) [min]	% trans ([2]; irradiation at 554 nm, 33 μM, PBS 20% MeCN, 37° C.) [%]	% cis before photorelaxation ([2]; state before 550 nm irradiation) [%]	% trans after photorelaxation ([2]; very low intensity light of 550 nm) [%]
8.4	0.04	1.00	approx. 90%	0.59	approx. 50%	0.14	0.08	0.04	0.02	0.30	0.23	approx. 20%	COc1ccc(N=Nc2cc(OC)c(OC)c(OC)c2)cc1O [I.1, 2-methoxy-5-((3,4,5-trimethoxyphenyl)diazenyl)phenol]	6.2			
													CCN(CC)c1ccc2c(-c3ccccc3C(=O)N3CCN(CCCOc4c(N=Nc5cc(OC)c(OC)c(OC)c5)ccc(OC)c4C)CC3)c3ccc(=[N+](CC)CC)cc-3oc2c1.CCN(CC)c1ccc2c(-c3ccccc3C(=O)N3CCN(CCCOc4c(N=Nc5cc(OC)c(OC)c(OC)c5)ccc(OC)c4C)CC3)c3ccc(=[N+](CC)CC)cc-3oc2c1.O=C[O-].O=C[O-] [I.25, N-(6-(diethylamino)-9-(2-(4-(3-(3-methoxy-2-methyl-6-((3,4,5-trimethoxyphenyl)diazenyl)phenoxy)propyl)piperazine-1-carbonyl)phenyl)-3H-xanthen-3-ylidene)-N-ethylethanaminium bis(formate) salt]	16.2	100	> 70	> 99
